{
  "source": "ChEMBL document CHEMBL5518204",
  "about": "“Discovery and Proof of Concept of Potent Dual Polθ/PARP Inhibitors for Efficient Treatment of Homologous Recombination-Deficient Tumors” (J Med Chem, 2024)",
  "key": {"[1]": {"target": "T1, Poly [ADP-ribose] polymerase tankyrase-1 (Homo sapiens, UniProt O95271)", "T1 sequence (O95271 whole entry)": "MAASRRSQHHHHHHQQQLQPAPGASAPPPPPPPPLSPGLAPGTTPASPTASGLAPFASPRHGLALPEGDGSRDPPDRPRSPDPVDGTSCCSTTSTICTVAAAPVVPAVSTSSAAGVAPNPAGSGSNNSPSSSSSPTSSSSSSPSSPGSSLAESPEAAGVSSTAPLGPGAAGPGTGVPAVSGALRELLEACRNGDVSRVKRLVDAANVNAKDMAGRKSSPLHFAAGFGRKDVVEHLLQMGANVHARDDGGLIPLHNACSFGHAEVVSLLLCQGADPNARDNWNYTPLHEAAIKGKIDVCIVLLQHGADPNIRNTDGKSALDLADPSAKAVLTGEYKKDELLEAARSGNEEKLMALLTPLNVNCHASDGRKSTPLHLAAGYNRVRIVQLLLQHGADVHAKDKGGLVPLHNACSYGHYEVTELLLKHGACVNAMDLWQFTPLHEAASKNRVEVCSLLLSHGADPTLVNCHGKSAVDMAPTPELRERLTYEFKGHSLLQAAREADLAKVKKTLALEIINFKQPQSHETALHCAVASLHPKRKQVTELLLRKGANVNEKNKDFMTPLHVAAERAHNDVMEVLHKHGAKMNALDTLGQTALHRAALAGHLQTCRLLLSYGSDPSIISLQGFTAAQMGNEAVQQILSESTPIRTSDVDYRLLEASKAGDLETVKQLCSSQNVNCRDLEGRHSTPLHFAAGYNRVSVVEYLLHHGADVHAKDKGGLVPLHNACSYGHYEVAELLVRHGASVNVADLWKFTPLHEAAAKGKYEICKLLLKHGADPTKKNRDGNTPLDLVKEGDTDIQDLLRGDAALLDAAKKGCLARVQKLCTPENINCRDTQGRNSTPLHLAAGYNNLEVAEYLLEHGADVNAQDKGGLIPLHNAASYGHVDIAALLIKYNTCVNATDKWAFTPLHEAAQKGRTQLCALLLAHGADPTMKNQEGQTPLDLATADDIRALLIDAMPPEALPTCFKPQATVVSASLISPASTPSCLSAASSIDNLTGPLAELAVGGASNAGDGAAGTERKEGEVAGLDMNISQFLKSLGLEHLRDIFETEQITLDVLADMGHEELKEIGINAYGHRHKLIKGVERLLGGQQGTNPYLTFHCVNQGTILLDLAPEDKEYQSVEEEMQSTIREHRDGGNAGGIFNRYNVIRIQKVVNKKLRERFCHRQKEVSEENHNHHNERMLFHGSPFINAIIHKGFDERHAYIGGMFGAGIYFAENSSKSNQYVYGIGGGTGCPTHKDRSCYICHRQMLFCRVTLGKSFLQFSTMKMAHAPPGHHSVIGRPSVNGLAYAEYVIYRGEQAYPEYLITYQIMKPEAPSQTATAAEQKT", "experiment": "Inhibition of PARP5a (unknown origin)"}, "[2]": {"experiment": "Toxicity in BALB/c mouse xenografted with human MDA-MB-231 cells assessed as spleen damage at 20 to 40 mg/kg, ip administered for 21 days by H and E staining based analysis", "type": "organism-based", "conditions": "in vivo, 504 h, dose 20-40 mg/kg, time 21 day"}, "[3]": {"experiment": "Toxicity in BALB/c mouse xenografted with human MDA-MB-231 cells assessed as heart damage at 20 to 40 mg/kg, ip administered for 21 days by H and E staining based analysis", "type": "organism-based", "conditions": "in vivo, 504 h, dose 20-40 mg/kg, time 21 day"}, "[4]": {"experiment": "Metabolic stability in mouse liver microsome assessed as intrinsic clearance", "type": "ADME", "conditions": "liver microsomes, read-out: CLH"}, "[5]": {"target": "Poly [ADP-ribose] polymerase 1 (Homo sapiens, UniProt P09874)", "sequence (P09874 whole entry)": "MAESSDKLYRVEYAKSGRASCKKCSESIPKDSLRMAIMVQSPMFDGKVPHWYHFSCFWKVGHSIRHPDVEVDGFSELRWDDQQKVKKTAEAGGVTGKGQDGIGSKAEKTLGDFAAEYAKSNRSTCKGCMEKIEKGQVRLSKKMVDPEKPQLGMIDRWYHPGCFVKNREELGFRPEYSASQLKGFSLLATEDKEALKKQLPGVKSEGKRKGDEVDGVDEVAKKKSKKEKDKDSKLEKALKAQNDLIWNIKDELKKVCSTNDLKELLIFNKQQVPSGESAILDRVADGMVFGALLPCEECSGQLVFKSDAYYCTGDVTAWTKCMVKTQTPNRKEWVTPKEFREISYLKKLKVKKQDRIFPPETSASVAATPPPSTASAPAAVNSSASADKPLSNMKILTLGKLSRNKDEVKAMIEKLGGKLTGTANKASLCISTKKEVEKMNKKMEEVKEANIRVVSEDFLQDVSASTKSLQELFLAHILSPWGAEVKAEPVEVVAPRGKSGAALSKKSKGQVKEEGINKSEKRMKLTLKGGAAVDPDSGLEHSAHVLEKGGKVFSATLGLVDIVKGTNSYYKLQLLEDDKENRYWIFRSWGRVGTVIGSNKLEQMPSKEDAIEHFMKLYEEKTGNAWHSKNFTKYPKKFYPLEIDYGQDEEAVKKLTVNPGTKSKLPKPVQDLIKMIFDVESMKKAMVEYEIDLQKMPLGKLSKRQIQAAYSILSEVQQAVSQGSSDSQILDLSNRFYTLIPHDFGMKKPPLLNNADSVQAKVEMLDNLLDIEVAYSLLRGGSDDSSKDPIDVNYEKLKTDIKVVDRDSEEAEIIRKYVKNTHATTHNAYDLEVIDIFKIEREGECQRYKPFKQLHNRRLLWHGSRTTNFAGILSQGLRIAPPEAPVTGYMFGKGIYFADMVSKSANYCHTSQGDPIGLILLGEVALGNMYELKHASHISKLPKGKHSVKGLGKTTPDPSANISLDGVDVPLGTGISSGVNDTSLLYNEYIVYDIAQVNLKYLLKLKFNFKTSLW", "experiment": "Inhibition of human PARP1 incubated for 90 mins by colorimetric assay"}, "[6]": {"tested_on": "SK-OV-3", "experiment": "Antiproliferative activity against BRCA-proficient human SK-OV-3 cells assessed as inhibition of cell proliferation incubated for 5 days by MTT assay", "type": "functional, cell-based", "conditions": "SK-OV-3, 120 h"}, "[7]": {"experiment": "Clearance in Sprague-Dawley rat at 1 mg/kg, iv by LC-MS/MS analysis", "type": "ADME, organism-based", "conditions": "in vivo"}, "[8]": {"experiment": "Stability in mouse plasma assessed as half life", "type": "ADME, cell-free"}, "[9]": {"target": "Poly [ADP-ribose] polymerase 2 (Homo sapiens, UniProt Q9UGN5)", "sequence (Q9UGN5 whole entry)": "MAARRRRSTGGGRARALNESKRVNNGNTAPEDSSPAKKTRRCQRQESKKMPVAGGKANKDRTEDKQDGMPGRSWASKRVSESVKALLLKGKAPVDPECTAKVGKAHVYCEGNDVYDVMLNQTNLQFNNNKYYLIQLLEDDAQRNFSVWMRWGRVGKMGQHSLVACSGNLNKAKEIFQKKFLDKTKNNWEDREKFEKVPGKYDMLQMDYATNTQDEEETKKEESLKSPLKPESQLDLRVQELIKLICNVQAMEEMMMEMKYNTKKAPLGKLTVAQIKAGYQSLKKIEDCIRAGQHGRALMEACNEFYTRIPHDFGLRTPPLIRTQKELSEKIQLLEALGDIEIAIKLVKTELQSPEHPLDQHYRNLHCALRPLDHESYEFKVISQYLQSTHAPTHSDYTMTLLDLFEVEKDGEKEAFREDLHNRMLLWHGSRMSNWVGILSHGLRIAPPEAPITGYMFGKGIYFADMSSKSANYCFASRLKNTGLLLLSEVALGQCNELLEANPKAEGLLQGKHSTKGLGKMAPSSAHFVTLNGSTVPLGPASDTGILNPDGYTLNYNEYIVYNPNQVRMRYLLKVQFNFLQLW", "experiment": "Inhibition of PARP2 (unknown origin)"}, "[10]": {"tested_on": "MDA-MB-231", "experiment": "Antitumor activity against human MDA-MB-231 cells xenografted in BALB/c mouse assessed as tumor growth inhibition at 25 mg/kg, ip administered for 21 days", "type": "functional", "conditions": "MDA-MB-231, 504 h, time 21 day, read-out: TGI"}, "[11]": {"target": "DNA polymerase theta (Homo sapiens, UniProt O75417)", "sequence (O75417 whole entry)": "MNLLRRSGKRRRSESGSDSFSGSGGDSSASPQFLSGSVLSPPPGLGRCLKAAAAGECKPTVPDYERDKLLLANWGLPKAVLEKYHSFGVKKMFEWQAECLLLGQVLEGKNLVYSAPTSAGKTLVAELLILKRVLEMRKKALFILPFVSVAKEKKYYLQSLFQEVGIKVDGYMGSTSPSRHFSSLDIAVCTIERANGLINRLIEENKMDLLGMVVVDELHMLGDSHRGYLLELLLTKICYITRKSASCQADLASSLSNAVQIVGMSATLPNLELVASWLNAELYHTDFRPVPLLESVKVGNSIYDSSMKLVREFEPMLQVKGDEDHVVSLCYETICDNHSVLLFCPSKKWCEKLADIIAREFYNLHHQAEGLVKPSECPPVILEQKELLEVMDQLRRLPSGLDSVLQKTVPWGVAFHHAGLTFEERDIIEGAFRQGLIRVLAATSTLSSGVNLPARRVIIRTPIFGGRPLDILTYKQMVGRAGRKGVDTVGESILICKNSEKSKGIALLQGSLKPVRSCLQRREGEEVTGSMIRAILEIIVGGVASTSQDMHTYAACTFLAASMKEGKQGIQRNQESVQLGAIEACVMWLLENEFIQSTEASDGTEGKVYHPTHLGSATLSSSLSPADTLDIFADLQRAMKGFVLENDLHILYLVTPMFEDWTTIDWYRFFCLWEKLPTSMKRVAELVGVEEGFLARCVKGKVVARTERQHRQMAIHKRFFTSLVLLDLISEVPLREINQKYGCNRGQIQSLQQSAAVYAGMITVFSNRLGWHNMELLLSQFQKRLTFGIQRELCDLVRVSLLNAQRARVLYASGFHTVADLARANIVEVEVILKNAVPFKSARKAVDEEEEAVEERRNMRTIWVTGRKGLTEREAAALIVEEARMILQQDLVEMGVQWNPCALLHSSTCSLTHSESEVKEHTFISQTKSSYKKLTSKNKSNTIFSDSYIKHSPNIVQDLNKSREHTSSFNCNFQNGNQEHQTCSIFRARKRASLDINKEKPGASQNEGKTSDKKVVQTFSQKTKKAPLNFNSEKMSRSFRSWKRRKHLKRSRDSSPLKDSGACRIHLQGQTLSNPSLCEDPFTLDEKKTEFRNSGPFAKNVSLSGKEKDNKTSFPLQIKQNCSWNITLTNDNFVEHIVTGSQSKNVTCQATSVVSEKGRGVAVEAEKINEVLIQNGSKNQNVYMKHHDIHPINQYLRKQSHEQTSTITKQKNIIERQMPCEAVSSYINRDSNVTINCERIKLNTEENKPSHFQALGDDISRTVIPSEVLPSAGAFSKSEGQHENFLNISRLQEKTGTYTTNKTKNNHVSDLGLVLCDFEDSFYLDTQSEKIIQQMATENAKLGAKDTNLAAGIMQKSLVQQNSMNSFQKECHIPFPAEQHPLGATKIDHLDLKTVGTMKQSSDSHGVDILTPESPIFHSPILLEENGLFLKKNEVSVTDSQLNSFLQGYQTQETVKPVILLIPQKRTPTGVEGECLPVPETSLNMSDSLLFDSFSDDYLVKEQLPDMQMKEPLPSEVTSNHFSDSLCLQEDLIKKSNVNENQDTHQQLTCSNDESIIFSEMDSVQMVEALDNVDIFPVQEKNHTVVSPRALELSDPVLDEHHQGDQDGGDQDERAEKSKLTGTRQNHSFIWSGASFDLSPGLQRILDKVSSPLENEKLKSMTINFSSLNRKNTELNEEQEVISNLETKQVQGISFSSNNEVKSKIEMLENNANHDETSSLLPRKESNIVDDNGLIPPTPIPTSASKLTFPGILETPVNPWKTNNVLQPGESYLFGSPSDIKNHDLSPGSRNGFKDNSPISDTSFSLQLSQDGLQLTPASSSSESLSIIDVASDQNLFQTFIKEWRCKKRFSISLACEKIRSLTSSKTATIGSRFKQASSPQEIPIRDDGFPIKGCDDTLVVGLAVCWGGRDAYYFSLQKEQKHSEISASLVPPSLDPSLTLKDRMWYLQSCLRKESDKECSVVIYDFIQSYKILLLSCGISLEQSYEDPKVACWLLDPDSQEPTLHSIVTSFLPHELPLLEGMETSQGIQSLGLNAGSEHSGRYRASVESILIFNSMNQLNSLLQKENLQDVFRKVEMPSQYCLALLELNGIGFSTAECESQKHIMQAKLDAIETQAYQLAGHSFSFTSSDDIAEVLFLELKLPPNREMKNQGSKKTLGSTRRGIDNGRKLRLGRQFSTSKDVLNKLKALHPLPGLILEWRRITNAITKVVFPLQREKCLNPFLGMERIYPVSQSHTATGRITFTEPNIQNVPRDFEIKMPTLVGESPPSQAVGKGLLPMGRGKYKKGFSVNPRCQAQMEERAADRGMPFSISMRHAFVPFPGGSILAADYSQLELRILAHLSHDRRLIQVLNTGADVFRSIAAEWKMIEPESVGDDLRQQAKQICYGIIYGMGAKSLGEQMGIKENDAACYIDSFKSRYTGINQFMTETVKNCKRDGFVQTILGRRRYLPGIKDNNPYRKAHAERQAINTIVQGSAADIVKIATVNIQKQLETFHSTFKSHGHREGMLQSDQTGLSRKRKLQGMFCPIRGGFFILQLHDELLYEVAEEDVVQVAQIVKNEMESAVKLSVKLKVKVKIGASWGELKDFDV", "experiment": "Inhibition of DNA polymerase theta mediated TMEJ repair activity in HEK293 cells incubated for 24 hrs by Nano-glo luciferase assay", "type": "cell-based"}, "[12]": {"tested_on": "MCF-10A", "experiment": "Effect on PARP1 expression in human MCF-10A cells by immunoblotting analysis", "type": "functional, cell-based"}},
  "note": "Active and inactive are the calls of the source. No cut-off for these calls is given here.",
  "data": [
    {"smiles": "COc1ccc(Cl)cc1-c1cc(C)ncc1C(=O)Nc1nnc(OCC2CCN(C(=O)c3cc(Cc4n[nH]c(=O)c5ccccc45)ccc3F)CC2)s1", "values": [
      {"measurement": "IC50", "setting": "[1]", "value": 206, "unit": "nM"},
      {"measurement": "Activity", "setting": "[2]", "value": "Non-Toxic"},
      {"measurement": "Activity", "setting": "[3]", "value": "Non-Toxic"},
      {"measurement": "CLint scaled", "setting": "[4]", "value": 1070, "unit": "mL/min/kg"},
      {"measurement": "IC50", "setting": "[5]", "value": 5.4, "unit": "nM"},
      {"measurement": "IC50", "setting": "[6]", "value": 18900, "unit": "nM"},
      {"measurement": "clearance", "setting": "[7]", "value": 22.7, "unit": "mL/min/kg"},
      {"measurement": "half-life", "setting": "[8]", "value": 38.5, "unit": "h"},
      {"measurement": "IC50", "setting": "[9]", "value": 2.3, "unit": "nM"},
      {"measurement": "inhibition in vivo at 25 mg/kg", "setting": "[10]", "value": 54.4, "unit": "%"},
      {"measurement": "IC50", "setting": "[11]", "value": 88, "unit": "nM"},
      {"measurement": "Activity", "setting": "[12]", "value": "Active"}
    ]}
  ]
}
